Results reported in publication PMC7464173, “Phosphate Derivatives of 3-Carboxyacylbetulin: SynThesis, In Vitro Anti-HIV and Molecular Docking Study” (Biomolecules, 2020).
Where two headings read alike, the source gives them in different places.

How the values were obtained:
[1] = Cytotoxicity, MTT assay in CEM-T4 cells; format: cell-based; details: human
Description: For the determination of compounds’ cytotoxicity, CEM-T4 cells were obtained from the NIH AIDS Reagent Program (NIH, US) and were cultured in RPMI supplemented with 10% FCS (Biochrom) and antibiotics at 37 °C in 5% CO2 on 96-well culture plates. The experiments were carried out in media containing tested compounds in concentrations of the appropriate range. Cultures in a neat medium (RPMI, 10% FCS) were used as a control. Viability of cells was determined after 7 days using the MTT assay in which 10 μL of MTT solution (5 mg/mL) was added to each culture plate well, and cultures were incubated for 3 h at a temperature of 37 °C. After the centrifugation, the supernatant was removed, and DMSO was added for lysis of the cells and to dissolve crystals of formazan. Color intensity was measured with a plate reader at 560 nm.
Newly synthesized compounds 2–5 were evaluated for their activity against HIV-1 in a CEM-T4 cell line. First, a cytotoxicity assessment of the synthesized derivatives was performed using the MTT [3-(4,5-dimethylthiazol-2-yl)-2,5-diphenyltetrazolium bromide]. The results were expressed as CC50 (concentration of compound causing 50% cell death). Anti-HIV activity was expressed as IC50 (concentration of compound causing 50% inhibition of replication) and consisted of measurements of p24 antigen made using the Genscreen ULTRA HIV Ag-Ab Kit.

[2] = system: HIV-1; test: Anti-HIV-1 replication activity, p24 antigen ELISA in HIV-infected CEM-T4 cell line; format: cell-based; details: for IC50: Human immunodeficiency virus 1, CEM-T4, 168 h; for ability to inhibit HIV replication: tested range of concentrations 0.02 to 10 μM; for TI: therapeutic index (selectivity index), the ratio of CC50 to IC50
[3] = system: HIV-1; parameters: method as in PMID 31640137; details: in vitro anti-HIV-1 activity; cited from earlier work
[4] = cytotoxicity; cited from earlier work
[5] = concentration causing 50% cell death, CEM-T4 cells, MTT, 7 days, read-out: CC50
[6] = cytotoxicity values, CEM-T4 cells, read-out: IC50 (cytotoxicity)

Row | Compound | CC50 at 7 days [1, 5] [µM] | IC50 [2] [µM] | ability to inhibit HIV replication [2] | IC50 at 7 days [1, 6] [µM] | TI [2] | IC50 [3] [µM] | CC50 [4] [µM] | CC50 at 7 days [1] [µM] | IC50 at 7 days [1] [µM]
1 | C=C(C)[C@@H]1CC[C@]2(COP(=O)(OCC)OCC)CC[C@]3(C)C(CCC4[C@@]5(C)CC[C@H](O)C(C)(C)C5CC[C@]43C)C12 (some centres unmarked) [Compound 2, 28-Diethoxyphosphorylbetulin] | 18.3 ± 1.64 | > 10 | did not demonstrate the ability to inhibit HIV replication | – | – | – | – | – | –
2 | C=C(C)[C@@H]1CC[C@]2(COP(=O)(OCC)OCC)CC[C@]3(C)C(CCC4[C@@]5(C)CC[C@H](OC(=O)CCC(C)(C)C(=O)O)C(C)(C)C5CC[C@]43C)C12 (some centres unmarked) [Compound 5, 28-Diethoxyphosphoryl-3-O-(4′,4′-dimethylglutaryl)betulin] | 15.1 ± 1.27 | 0.22 ± 0.05 | – | 15.1 | 68 | – | – | – | –
3 | C=C(C)[C@@H]1CC[C@]2(COP(=O)(OCC)OCC)CC[C@]3(C)C(CCC4[C@@]5(C)CC[C@H](OC(=O)CC(C)(C)CC(=O)O)C(C)(C)C5CC[C@]43C)C12 (some centres unmarked) [Compound 4, 28-Diethoxyphosphoryl-3-O-(3′,3′-dimethylglutaryl)betulin] | 19.7 ± 1.64 | 0.04 ± 0.01 | – | 19.7 | 500 | – | – | – | –
4 | C=C(CP(=O)(OCC)OCC)[C@@H]1CC[C@]2(C(=O)O)CC[C@]3(C)C(CC[C@@H]4[C@@]5(C)CC[C@H](OC(=O)CC(C)(C)C(=O)O)C(C)(C)C5CC[C@]43C)[C@@H]12 (some centres unmarked) [Compound 6, 30-diethoxyphosphoryl-3-O-(3′,3′-dimethylsuccinyl)betulinic acid] | – | – | – | – | – | 0.02 | 68 | – | –
5 | C=C(C)[C@@H]1CC[C@]2(C(=O)O)CC[C@]3(C)[C@H](CC[C@@H]4[C@@]5(C)CC[C@H](OC(=O)CC(C)(C)C(=O)O)C(C)(C)[C@@H]5CC[C@]43C)[C@@H]12 [BVM, 3-O-(3’,3’-dimethylsuccinyl)betulinic acid, reference compound] | – | 0.03 ± 0.009 | – | – | – | – | – | 29 ± 2.43 | 29
6 | C=C(C)[C@@H]1CC[C@]2(CO)CC[C@]3(C)[C@H](CC[C@@H]4[C@@]5(C)CC[C@H](O)C(C)(C)[C@@H]5CC[C@]43C)[C@@H]12 [Compound 1, Betulin] | 46 ± 3.01 | > 10 | did not demonstrate the ability to inhibit HIV replication | – | – | – | – | – | –
7 | C=C(C)[C@@H]1CC[C@]2(COP(=O)(OCC)OCC)CC[C@]3(C)C(CCC4[C@@]5(C)CC[C@H](OC(=O)CC(C)(C)C(=O)O)C(C)(C)C5CC[C@]43C)C12 (some centres unmarked) [Compound 3, 28-Diethoxyphosphoryl-3-O-(3′,3′-dimethylsuccinyl)betulin] | 25.4 ± 1.54 | 0.02 ± 0.01 | – | 25.4 | 1250 | – | – | – | –
